{
  "source": "the NIST ThermoML archive (doi:10.1016/j.fluid.2014.01.018)",
  "key": {"[1]": {"details": "Crystal; DTA"}, "[2]": {"assay": "Molar enthalpy of transition or fusion", "details": "Crystal; DSC"}},
  "note": "Numbers after ± are expanded uncertainties.",
  "data": [
    {"compound": "CC(C)C1=CC2=CC[C@@H]3[C@](C)(CCC[C@@]3(C)C(=O)O)[C@H]2CC1", "note": "[abietic acid]", "values": [
      {"measurement": "Normal melting temperature", "setting": "[1]", "result": "177.74 ± 0.41", "unit": "°C"},
      {"measurement": "Molar enthalpy of transition or fusion", "setting": "[2]", "result": "4.65 ± 0.136", "unit": "kcal/mol"}
    ]}
  ]
}
